Columns and labels:
GAL-XOR-6 = assay: cotransfection assay, activation of GAL-XOR6 in CV-1 cells; type: cell-based, Xenopus laevis; conditions: for rank order potency of activation, esters differing in alkyl length (FIG. 3): 10^−6M of each compound; for activation of GAL-XOR-6 by agonist cocktail: cocktail: thyroid hormone 10^−7M, vitamin D3 10^−7M, all-trans RA 10^−6M, WY-14,643 5×10^−6M
Procedure: FIG. 3 illustrates the activation of XOR-6 by a variety of amino benzoate derivatives. Thus, 10^−6M of each compound was tested in the co-transfection assay for its ability to activate GAL-XOR6.
It can be concluded, therefore, that XOR-6 defines a novel RXR-dependent, ligand-mediated signalling pathway.
pCMX-GAL4-XOR6 was constructed by cloning nucleotides encoding amino acids 103 to 386 of XOR-6 into the SalI to XbaI sites of pCMX-GAL4 (see U.S. Ser. No. 08/177,740).
(§1) CV-1 cells were maintained in DMEM containing 10% resin-charcoal stripped fetal bovine serum. Liposome-mediated transient transfections were performed using DOTAP reagent (Boehringer Manheim) at a concentration of 5 μg/ml in Opti-MEM (Gibco). After 12-18 hours, the cells were washed and fresh DMEM-10% serum was added, including receptor agonists if required. After a further 48 hour incubation, the cells were lysed and luciferase reporter gene assays and β-galactosidase transfection control assays performed. Reporter gene expression is normalized to the β-galactosidase transfection control and expressed as relative light units per O.D. per minute of β-galactosidase activity.

XOR-6 = assay: cotransfection assay, activation of XOR-6 in transfected CV-1 cells; type: cell-based, Xenopus laevis; conditions: for rank order potency of XOR-6 activation, ortho/meta/para amino ethyl benzoates: cotransfection assay; for activation of XOR-6 (agonist activity in the cotransfection assay): transfected CV-1 cells
Procedure: A search for the XOR-6 ligand was instituted based on the presumption that the receptor and its ligand must be co-expressed at some time during development. Accordingly, an unbiased, bioassay directed screen for XOR-6 agonists was undertaken in HPLC fractionated organic extracts derived from a mixture of developmental stages. Total lipid extracts from a mixture of embryonic stages from fertilized eggs through swimming tadpoles were prepared and tested for the ability to activate both GAL-XOR6 or full-length XOR-6 in transfected CV-1 cells.
The total extract was partitioned between iso-octane and MeOH and again tested for bioactivity.
A suitable eukaryotic expression vector for use herein was constructed from the commercially available vector pCDNAI-AMP (Invitrogen). This vector allows expression from the strong cytomegalovirus early promoter, and bacteriophage T7 and SP6 promoter-driven production of sense and antisense RNA, respectively.
The cloning strategy employed was as follows: the three endogenous NcoI sites were removed by site directed mutagenesis, the polylinker region between XhoI and XbaI was removed by double digestion, endfilling and self ligation. […] The resulting plasmid, designated pCDG1, can be linearized with NotI to produce mRNA from the bacteriophage T7 promoter. The XOR-6 protein coding region was cloned between the NcoI and BamHI sites of pCDG1 and designated pCDG-XOR6.
as §1

xRXRα = target: T1, xRXRα (Xenopus laevis, UniProt P51128); assay: protease protection assay (ligand binding), parallel experiment; conditions: parallel experiment with xRXRα
T1 construct: made in house; host or cells: coupled in vitro transcription/translation (TNT, Promega)
T1 sequence (P51128 1-488): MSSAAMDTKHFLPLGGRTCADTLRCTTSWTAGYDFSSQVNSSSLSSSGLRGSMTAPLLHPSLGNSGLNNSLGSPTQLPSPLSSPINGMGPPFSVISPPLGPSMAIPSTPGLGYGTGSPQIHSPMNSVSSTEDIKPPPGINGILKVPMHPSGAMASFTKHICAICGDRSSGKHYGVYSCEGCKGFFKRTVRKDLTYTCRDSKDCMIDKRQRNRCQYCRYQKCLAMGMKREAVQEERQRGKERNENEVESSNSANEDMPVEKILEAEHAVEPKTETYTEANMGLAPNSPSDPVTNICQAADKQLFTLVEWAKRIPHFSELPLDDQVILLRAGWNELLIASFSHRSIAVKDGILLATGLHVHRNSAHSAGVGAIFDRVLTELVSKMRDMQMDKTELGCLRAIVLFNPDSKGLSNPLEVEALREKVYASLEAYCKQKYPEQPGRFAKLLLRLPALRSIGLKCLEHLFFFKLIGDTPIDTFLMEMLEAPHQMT
Description: Biol. 14:287-298 (1994) was utilized.

XOR6:xRXRα heterodimer = assay: co-transfection experiments, responsiveness of heterodimer to two ligands; type: cell-based, Xenopus laevis; conditions: receptor dependent manner
Procedure: Receptors were transfected into cells and incubated with the indicated concentrations of agonists.
A potentially significant property of the XOR6:xRXRα heterodimer is its responsiveness to two ligands. […] This synergism occurs at several dilutions of the XOR-6 agonist and concentrations of 9-cis RA (see FIG. 4). […] Such complexes would be ideal candidates for responding to combinations of graded morphogenetic signals during development.
as §1

βRARE = assay: interference of XOR-6 overexpression with retinoic acid signalling through βRARE in CV-1 cells; type: cell-based; conditions: 1 μg expression plasmid co-transfected into CV-1 cells with 5 μg tk-β REx2-luc, all-trans retinoic acid
Procedure: 1 μg of XOR-6 expression plasmid was co-transfected into CV-1 cells with 5 μg of tk-β REx2-luc, and challenged with the indicated concentrations of all-trans retinoic acid.
Because XOR-6:RXR heterodimers bind well to a retinoic acid response element, βRARE, it was tested whether overexpression of XOR-6 could influence retinoic acid signalling through this element. […] This effect was strongest with full-length XOR-6 (24% of wild-type activity) but still detectable with GAL-XOR-6 (44% of wild-type activity).
as §1

CCCCOC(=O)c1ccc(N)cc1
rank order potency of activation, esters differing in alkyl length (FIG. 3) (GAL-XOR-6): 4-amino-butyl benzoate>3-amino-ethyl benzoate>4-amino-ethyl benzoate>>4-amino methyl benzoate

CCOC(=O)c1ccccc1N [2-AEB]
rank order potency of XOR-6 activation, ortho/meta/para amino ethyl benzoates (XOR-6): 3-AEB>4-AEB>>2-AEB
activation of XOR-6 (agonist activity in the cotransfection assay) (XOR-6): activated

Nc1ccccc1C(=O)O [2-amino benzoic acid, reference compound]
activation of XOR-6 (agonist activity in the cotransfection assay) (XOR-6): not possible, however, to demonstrate XOR-6 activation

CCOC(=O)c1cccc(N)c1 [3-AEB]
protection from trypsin cleavage (xRXRα): not seen
rank order potency of activation, esters differing in alkyl length (FIG. 3) (GAL-XOR-6): 4-amino-butyl benzoate>3-amino-ethyl benzoate>4-amino-ethyl benzoate>>4-amino methyl benzoate
specificity of activation among an extensive collection of vertebrate nuclear receptors (XOR-6): specifically activates XOR-6 alone
activation of XOR-6 (agonist activity in the cotransfection assay) (XOR-6): potent agonist
activation of XOR-6 (agonist activity in the cotransfection assay) (XOR-6; listed as meta amino ethyl benzoate): activated

Nc1cccc(C(=O)O)c1 [3-amino benzoic acid, reference compound]
activation of XOR-6 (agonist activity in the cotransfection assay) (XOR-6): not possible, however, to demonstrate XOR-6 activation

Nc1cccc(C(=O)O)c1O [3-amino salicylic acid, reference compound]
activation of XOR-6 (agonist activity in the cotransfection assay) (XOR-6): not possible, however, to demonstrate XOR-6 activation

CCOC(=O)c1ccc(N)cc1 [4-AEB, 4-amino-ethyl benzoate]
rank order potency of activation, esters differing in alkyl length (FIG. 3) (GAL-XOR-6): 4-amino-butyl benzoate>3-amino-ethyl benzoate>4-amino-ethyl benzoate>>4-amino methyl benzoate
rank order potency of XOR-6 activation, ortho/meta/para amino ethyl benzoates (XOR-6): 3-AEB>4-AEB>>2-AEB
activation of XOR-6 (agonist activity in the cotransfection assay) (XOR-6): activated

Nc1ccc(C(=O)O)cc1 [4-amino benzoic acid, 4-amino-benzoic acid, reference compound]
activation of XOR-6 (agonist activity in the cotransfection assay) (XOR-6): not possible, however, to demonstrate XOR-6 activation

COC(=O)c1ccc(N)cc1 [4-amino methyl benzoate]
rank order potency of activation, esters differing in alkyl length (FIG. 3) (GAL-XOR-6): 4-amino-butyl benzoate>3-amino-ethyl benzoate>4-amino-ethyl benzoate>>4-amino methyl benzoate

Nc1ccc(C(=O)O)c(O)c1 [4-amino salicylic acid, reference compound]
activation of XOR-6 (agonist activity in the cotransfection assay) (XOR-6): not possible, however, to demonstrate XOR-6 activation

CC1=C(/C=C/C(C)=C\C=C\C(C)=C\C(=O)O)C(C)(C)CCC1 [9-cis RA, 9-cis retinoic acid]
stimulation of reporter gene expression (XOR6:xRXRα heterodimer): stimulated reporter gene expression

Cc1cccc(Nc2cc(Cl)nc(SCC(=O)O)n2)c1C [WY-14,643, reference compound]
activation of GAL-XOR-6 by agonist cocktail (GAL-XOR-6): not activated

CC1=C(/C=C/C(C)=C/C=C/C(C)=C/C(=O)O)C(C)(C)CCC1 [all-trans RA, all-trans retinoic acid, reference compound]
activation of GAL-XOR-6 by agonist cocktail (GAL-XOR-6): not activated

N[C@@H](Cc1cc(I)c(Oc2ccc(O)c(I)c2)c(I)c1)C(=O)O [thyroid hormone, reference compound]
activation of GAL-XOR-6 by agonist cocktail (GAL-XOR-6): not activated

C=C1CC[C@H](O)C/C1=C/C=C1\CCC[C@]2(C)[C@@H]([C@H](C)CCCC(C)C)CC[C@@H]12 [vitamin D3, reference compound]
activation of GAL-XOR-6 by agonist cocktail (GAL-XOR-6): not activated

B1: full-length XOR-6: Xenopus Orphan Receptor 6, about 386 amino acids (SEQ ID NO:2), overexpressed from plasmid (protein)
chain: MWKVQETLVLEEEEEEEDASNSCGTGEDEDDGDPKICRACGDRATGYHFNAMTCEGCKGFFRRAVKRNLRLSCPFQNSCVINKSNRRHCQACRLKKCLDIGMRKELIMSDAAVEQRRALIKRKHKLTKLPPTPPGASLTPEQQHFLTQLVGAHTKTFDFNFTFSKNFRPIRRSSDPTQEPQATSSEAFLMLPHISDLVTYMIKGIISFAKMLPYFKSLDIEDQIALLKGSVAEVSVIRFNTVFNSDTNTWECGPFTYDTEDMFLAGFRQLFLEPLVRIHRMMRKLNVQSEEYAMMAALSIFASYRPGVCDWEKIQKLQEHIALTLKDFIDSQRPPSPQNRLLYPKIMECLTELRTVNDIHSKQLLEIWDIQPDATPLMREVFGSPE
retinoic acid-responsiveness of βRARE promoter on co-expression (βRARE): 24 % of wild-type activity

B2: GAL-XOR-6: GAL4 fusion with amino acids 103 to 386 of XOR-6 (pCMX-GAL4-XOR6) (protein)
chain: RKELIMSDAAVEQRRALIKRKHKLTKLPPTPPGASLTPEQQHFLTQLVGAHTKTFDFNFTFSKNFRPIRRSSDPTQEPQATSSEAFLMLPHISDLVTYMIKGIISFAKMLPYFKSLDIEDQIALLKGSVAEVSVIRFNTVFNSDTNTWECGPFTYDTEDMFLAGFRQLFLEPLVRIHRMMRKLNVQSEEYAMMAALSIFASYRPGVCDWEKIQKLQEHIALTLKDFIDSQRPPSPQNRLLYPKIMECLTELRTVNDIHSKQLLEIWDIQPDATPLMREVFGSPE
modifications: left off: large carriers
retinoic acid-responsiveness of βRARE promoter on co-expression (βRARE): 44 % of wild-type activity

From US6391847B1, “Method, polypeptides, nucleotide sequence of XOR-6, a vitamin D-like receptor from xenopus” (The Salk Institute for Biological Studies, priority 1995, dated 2002)
